Measurements: patent US20080312171A1, “Tetracycline-Dependent Regulation of Rna Interference” (CENTRE NATIONAL DE LA RECHERCHE SCIENTIFIQUE, priority 2005, published 2008)

Columns and labels:
Format in all cases: cell-based
[1] = tested on: GFP expression in HEK 293T GFP cell clones; test: GFP fluorescence (FACS, microscopy) in cell clones from transduced HEK 293T GFP cells, Dox-controlled RNAi
human p53 = test: Western blot analysis of p53 silencing by Dox-regulated RNAi in HEK 293T, MCF-7 and A549 cells; conditions: transduced HEK 293T, Dox 6 μg/ml, 5-7 days, densitometric analysis
Protocol: Cells (1×10^5) were incubated overnight with indicated quantities of vector, expressed as ng of protein p24, and then cultivated in the absence and in the presence of 6 μg/ml Dox. After a 5 day (MCF-7 and A549 cells) and a 7 day cultivation (HEK 293T cells), protein was extracted from the cells and analyzed by immunoblotting.
Inventors constructed a second vector, which contained a shRNA encoding sequence designed to silence expression of human p53 as described (1). […] The expression of p53 was not reduced when non-transduced cells were incubated in the presence of Dox (6 μg/ml).
Cell extracts were prepared in lysis buffer [25 mM Tris-HCl (pH 7.5), 1% Triton X-100, 0.5% sodium deoxycholate, 5 mM EDTA, 150 mM NaCl] containing a cocktail of protease inhibitors (Roche, Meylan, France). The protein samples (30 μg) were separated on SDS-9% polyacrylamide gels and then transferred to Protan nitrocellulose membranes (Schleicher and Shuell, Dassel, Germany) in an electroblotting apparatus, using standard procedures (26). Immunodetection was performed as described in Tejedor-Real et al. (27), using a monoclonal anti-p53 antibody (BD Biosciences, Erembodegem, Belgium), a monoclonal anti-actin antibody (Chemicon, Hampshire, UK) and an anti-mouse Ig-horseradish peroxidase (HRP) conjugate (Amersham Biosciences).

[2] = tested on: GFP expression in HEK 293T GFP cells; test: FACS analysis of GFP-positive cells, vector-transduced HEK 293T GFP cells with and without Dox; conditions: various amounts of vector, Dox 6 μg/ml, 5 days

Which “MFI (+Dox)” value ([1]; clone C1) does the source give for `C[C@H]1c2cccc(O)c2C(=O)C2=C(O)[C@]3(O)C(=O)C(C(N)=O)=C(O)[C@@H](N(C)C)[C@@H]3[C@@H](O)[C@@H]21` [Dox, Doxycycline] here?
Its value is 4.

What about the Regulation factor ([1]; clone C1, MFI (−Dox) over MFI (+Dox)) of the same molecule?
Its Regulation factor is 52.

What about the “MFI (+Dox)” value ([1]; clone C9) of the same molecule?
Its value is 32.

And the “reduction of GFP fluorescence” value ([1]; clone C9, 6 μg/ml Dox, after 5-6 days, FACS)?
The value was 90%.

And the Regulation factor ([1]; clone C9, MFI (−Dox) over MFI (+Dox))?
The Regulation factor was 9.7.

What about the “concentration required to induce a 90% suppression of GFP” value ([1]; clone C9, within 5 days) of the same molecule?
The value was “about 6 μg/ml”.

And the “MFI (+Dox)” value ([1]; clone D8)?
The value was 9.

What about the Regulation factor ([1]; clone D8, MFI (−Dox) over MFI (+Dox)) of the same molecule?
Its Regulation factor is 24.

And the “MFI (+Dox)” value ([1]; clone H6)?
Its value is 77.

What about the Regulation factor ([1]; clone H6, MFI (−Dox) over MFI (+Dox)) of the same molecule?
Its Regulation factor is 4.4.

And the “inhibition of the expression of p53” value (human p53)?
Its value is “up to 90%”.

And the “reduction of the number of GFP-expressing cells” value [2]?
The value was “up to 60%”.
